Results as given in patent US20100093714A1, “AMIDES OF THIENO[2,3-d]PYRIMIDINE AND THEIR USE AS ADENOSINE A2a RECEPTOR ANTAGONISTS” (priority 2008, published 2010).

How the values were obtained:
[1] = target: T1, human A2a adenosine receptor (Homo sapiens, UniProt P29274); test: Ligand Binding Assay for Adenosine A2a Receptor (A2A-B); details: HEK293 cell plasma membrane, radioligand [3H]CGS21680
T1 construct: purchased PerkinElmer RB-HA2a; host or cells: HEK293 plasma membrane
Experimental: Ligand binding assay of adenosine A2a receptor was performed using plasma membrane of HEK293 cells containing human A2a adenosine receptor (PerkinElmer, RB-HA2a) and radioligand [^3H]CGS21680 (PerkinElmer, NET1021). Assay was set up in 96-well polypropylene plate in total volume of 200 μL by sequentially adding 20 μL 1:20 diluted membrane, 130 μL assay buffer (50 mM Tris·HCl, pH7.4 10 mM MgCl2, 1 mM EDTA) containing [^3H] CGS21680, 50 μL diluted compound (4×) or vehicle control in assay buffer. Nonspecific binding was determined by […] NECA. Reaction was carried out at room temperature for 2 hours before filtering through 96-well GF/C filter plate pre-soaked in 50 mM Tris·HCl, pH7.4 containing 0.3% polyethylenimine. Plates were then washed 5 times with cold 50 mM Tris·HCl, pH7.4, dried and sealed at the bottom. Microscintillation fluid 30 μL was added to each well and the top sealed. Plates were counted on Packard Topcount for [^3H]. Data was analyzed in Microsoft Excel and GraphPad Prism programs. (Varani, K.; Gessi, S.; Dalpiaz, A.; Borea, P. A. British Journal of Pharmacology, 1996, 117, 1693)

[2] = target: T2, human adenosine A2a receptor (Homo sapiens, UniProt P29274); test: Adenosine A2a Receptor Functional Assay (A2AGAL2); format: cell-based; details: CHO-K1 cells, cAMP inducible beta-galactosidase reporter, 15 nM NECA agonist challenge
T2 construct: expressed in transfected cells; host or cells: CHO-K1
Experimental: (§1) To initiate the functional assay, cryopreserved CHO-K1 cells overexpressing the human adenosine A2a receptor and containing a cAMP inducible beta-galactosidase reporter gene were thawed, centrifuged, DMSO containing media removed, and then seeded with fresh culture media into clear 384-well tissue culture treated plates (BD #353961) at a concentration of 10K cells/well. Prior to assay, these plates were cultured for two days at 37° C., 5% CO2, 90% Rh. On the day of the functional assay, culture media was removed and replaced with 45 uL assay medium (Hams/F-12 Modified (Mediatech #10-080CV) supplemented w/0.1% BSA). Test compounds were diluted and 11 point curves created at a 1000× concentration in 100% DMSO. Immediately after addition of assay media to the cell plates, 50 nL of the appropriate test compound antagonist or agonist control curves were added to cell plates using a Cartesian Hummingbird. Compound curves were allowed to incubate at room temperature on cell plates for approximately 15 minutes before addition of a 15 nM NECA (Sigma E2387) agonist challenge (5 uL volume). A control curve of NECA, a DMSO/Media control, and a single dose of Forskolin (Sigma F3917) were also included on each plate. After additions, cell plates were allowed to incubate at 37° C., 5% CO2, 90% Rh for 5.5-6 hours. After incubation, media was removed, and cell plates were washed 1×50 uL with DPBS w/o Ca & Mg (Mediatech 21-031-CV). Into dry wells, 20 uL of 1× Reporter Lysis Buffer (Promega E3971 (diluted in dH2O from 5× stock)) was added to each well and plates frozen at −20° C. overnight. For β-galactosidase enzyme calorimetric assay, plates were thawed out at room temperature and 20 μL 2× assay buffer (Promega) was added to each well. Color was allowed to develop at 37° C., 5% CO2, 90% Rh for 1-1.5 h or until reasonable signal appeared. The calorimetric reaction was stopped with the addition of 60 μL/well 1M sodium carbonate. Plates were counted at 405 nm on a SpectraMax Microplate Reader (Molecular Devices). Data was analyzed in Microsoft Excel and IC/EC50 curves were fit using a standardized macro.

[3] = target: T3, human adenosine A1 receptor (Homo sapiens, UniProt P30542); test: Adenosine A1 Receptor Functional Assay (A1GAL2); format: cell-based; details: CHO-K1 cells, cAMP inducible beta-galactosidase reporter, 4nM r-PIA/1 uM Forskolin agonist challenge
T3 construct: expressed in transfected cells; host or cells: CHO-K1
T3 sequence (P30542 1-326): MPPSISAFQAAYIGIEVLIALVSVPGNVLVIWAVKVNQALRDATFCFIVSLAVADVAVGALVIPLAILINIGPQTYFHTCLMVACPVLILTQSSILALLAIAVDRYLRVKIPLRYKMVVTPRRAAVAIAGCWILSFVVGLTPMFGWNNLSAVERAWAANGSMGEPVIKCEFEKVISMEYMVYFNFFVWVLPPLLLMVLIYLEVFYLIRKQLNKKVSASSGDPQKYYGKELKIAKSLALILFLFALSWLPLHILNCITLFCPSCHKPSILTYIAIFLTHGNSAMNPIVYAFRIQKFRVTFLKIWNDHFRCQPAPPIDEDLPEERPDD
Experimental: as §1, with “A1” for “A2a”, “4nM r-PIA” for “15 nM NECA”, “P4532)/1 uM Forskolin (Sigma F3917)” for “E2387)”, “r-PIA in 1 uM Forskolin,” for “NECA,”, “Forskolin” for “Forskolin (Sigma F3917)”

T1 sequence (P29274 whole entry): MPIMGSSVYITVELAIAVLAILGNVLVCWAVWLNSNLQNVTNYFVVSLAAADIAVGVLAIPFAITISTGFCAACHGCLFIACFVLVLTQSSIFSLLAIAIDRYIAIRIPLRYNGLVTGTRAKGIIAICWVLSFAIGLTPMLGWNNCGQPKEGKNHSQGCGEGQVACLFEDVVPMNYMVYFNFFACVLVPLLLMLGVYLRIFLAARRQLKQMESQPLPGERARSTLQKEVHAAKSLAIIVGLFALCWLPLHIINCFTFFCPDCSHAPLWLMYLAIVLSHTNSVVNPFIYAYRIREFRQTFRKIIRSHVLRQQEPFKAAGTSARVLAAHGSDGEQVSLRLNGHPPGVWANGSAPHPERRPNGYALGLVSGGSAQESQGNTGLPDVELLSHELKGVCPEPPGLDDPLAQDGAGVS
T2 sequence (P29274 whole entry): as above

SMILES | Ki [1] [nM] | Ki [2] [nM] | Ki [3] [nM]
Cc1csc(-c2nc(N)c3cc(C(=O)N4CCOCC4)sc3n2)n1 [Example 3, [4-Amino-2-(4-methyl-thiazol-2-yl)-thieno[2,3-d]pyrimidin-6-yl]-morpholin-4-yl-methanone] | 45.5 | 24.9 | 851
N#Cc1cccc(-c2nc(N)c3cc(C(=O)N4CCOCC4)sc3n2)c1 [Example 2, 3-[4-Amino-6-(morpholine-4-carbonyl)-thieno[2,3-d]pyrimidin-2-yl]-benzonitrile] | 22 | 37.9 | 900
N#Cc1cccc(-c2nc(N)c3cc(C(=O)NCc4ccccn4)sc3n2)c1 [Example 15, 4-Amino-2-(3-cyano-phenyl)-thieno[2,3-d]pyrimidine-6-carboxylic acid(pyridin-2-ylmethyl)-amide] |  | 29 | 113
Cc1cc(-c2nc(N)c3cc(C(=O)N4CCOCC4)sc3n2)no1 [Example 17, [4-Amino-2-(5-methyl-isoxazol-3-yl)-thieno[2,3-d]pyrimidin-6-yl]-morpholin-4-yl-methanone] |  | 528 | > 923
Cc1csc(-c2nc(N)c3cc(C(=O)NCCc4cccnc4)sc3n2)n1 [Example 11, 4-Amino-2-(4-methyl-thiazol-2-yl)-thieno[2,3-d]pyrimidine-6-carboxylic acid(2-pyridin-3-yl-ethyl)-amide] |  | 17.9 | 530
CC(C)(C)N1CCN(C(=O)c2cc3c(N)nc(-c4ccc(C5CC5)o4)nc3s2)CC1 [Example 32, [4-Amino-2-(5-cyclopropyl-furan-2-yl)-thieno[2,3-d]pyrimidin-6-yl]-(4-tert-butyl-piperazin-1-yl)-methanone] |  | 1240 | > 1040
N#Cc1cccc(-c2nc(N)c3cc(C(=O)NCc4cccnc4)sc3n2)c1 [Example 19, 4-Amino-2-(3-cyano-phenyl)-thieno[2,3-d]pyrimidine-6-carboxylic acid(pyridin-3-ylmethyl)-amide] |  | 14.2 | 21.9
Cc1ccc(-c2nc(N)c3cc(C(=O)N4CCOCC4)sc3n2)o1 [Example 5, [4-Amino-2-(5-methyl-furan-2-yl)-thieno[2,3-d]pyrimidin-6-yl]-morpholin-4-yl-methanone] | 12 | 11 | 167
Nc1nc(-c2nccs2)nc2sc(C(=O)N3CCOCC3)cc12 [Example 4, (4-Amino-2-thiazol-2-yl-thieno[2,3-d]pyrimidin-6-yl)-morpholin-4-yl-methanone] |  | 80.9 | 1430
